Values quoted from earlier work as cited in US20030167999A1, “Crystal” (priority 2000, published 2003).

Tests used:
hAR M742V = hAR M742V (Homo sapiens, UniProt P10275, M743V)
hAR mutant L707R = hAR mutant L707R (Homo sapiens, UniProt P10275, L708R); conditions: Scatchard plot analysis
wild-type hAR = wild-type hAR (Homo sapiens, UniProt P10275)
wild-type hPR = target: T1, wild-type hPR (Homo sapiens, UniProt P06401); conditions: with respect to progesterone (RBA=100)
T1 sequence (P06401 1-933): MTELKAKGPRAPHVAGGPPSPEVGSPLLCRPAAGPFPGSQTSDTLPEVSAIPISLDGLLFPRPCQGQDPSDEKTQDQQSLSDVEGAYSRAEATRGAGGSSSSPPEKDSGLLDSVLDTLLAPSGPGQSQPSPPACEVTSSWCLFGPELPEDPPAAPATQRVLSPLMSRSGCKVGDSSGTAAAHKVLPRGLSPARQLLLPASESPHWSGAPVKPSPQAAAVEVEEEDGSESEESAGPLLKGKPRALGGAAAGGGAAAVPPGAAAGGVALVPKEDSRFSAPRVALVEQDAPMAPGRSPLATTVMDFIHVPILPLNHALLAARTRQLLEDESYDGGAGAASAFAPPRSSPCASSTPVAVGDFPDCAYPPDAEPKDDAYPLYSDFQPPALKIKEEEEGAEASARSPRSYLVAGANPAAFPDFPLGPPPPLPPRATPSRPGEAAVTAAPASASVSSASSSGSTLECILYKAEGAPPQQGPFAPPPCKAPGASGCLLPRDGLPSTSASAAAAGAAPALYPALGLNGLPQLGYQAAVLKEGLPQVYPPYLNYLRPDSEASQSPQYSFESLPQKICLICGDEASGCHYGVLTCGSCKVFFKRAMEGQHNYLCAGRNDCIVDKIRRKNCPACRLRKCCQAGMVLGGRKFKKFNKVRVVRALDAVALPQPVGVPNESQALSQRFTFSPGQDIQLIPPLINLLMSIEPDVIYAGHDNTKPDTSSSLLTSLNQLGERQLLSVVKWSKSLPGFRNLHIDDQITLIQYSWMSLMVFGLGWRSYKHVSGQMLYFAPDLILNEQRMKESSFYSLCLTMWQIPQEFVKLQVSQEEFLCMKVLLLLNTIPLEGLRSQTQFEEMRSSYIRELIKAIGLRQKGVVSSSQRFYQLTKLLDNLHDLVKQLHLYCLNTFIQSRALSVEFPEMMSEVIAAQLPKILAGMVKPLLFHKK

hAR mutation F764S = hAR mutation F764S (Homo sapiens, UniProt P10275, F765S)
hAR mutation F764S, sequence (P10275 whole entry F765S, the tested form may be a part): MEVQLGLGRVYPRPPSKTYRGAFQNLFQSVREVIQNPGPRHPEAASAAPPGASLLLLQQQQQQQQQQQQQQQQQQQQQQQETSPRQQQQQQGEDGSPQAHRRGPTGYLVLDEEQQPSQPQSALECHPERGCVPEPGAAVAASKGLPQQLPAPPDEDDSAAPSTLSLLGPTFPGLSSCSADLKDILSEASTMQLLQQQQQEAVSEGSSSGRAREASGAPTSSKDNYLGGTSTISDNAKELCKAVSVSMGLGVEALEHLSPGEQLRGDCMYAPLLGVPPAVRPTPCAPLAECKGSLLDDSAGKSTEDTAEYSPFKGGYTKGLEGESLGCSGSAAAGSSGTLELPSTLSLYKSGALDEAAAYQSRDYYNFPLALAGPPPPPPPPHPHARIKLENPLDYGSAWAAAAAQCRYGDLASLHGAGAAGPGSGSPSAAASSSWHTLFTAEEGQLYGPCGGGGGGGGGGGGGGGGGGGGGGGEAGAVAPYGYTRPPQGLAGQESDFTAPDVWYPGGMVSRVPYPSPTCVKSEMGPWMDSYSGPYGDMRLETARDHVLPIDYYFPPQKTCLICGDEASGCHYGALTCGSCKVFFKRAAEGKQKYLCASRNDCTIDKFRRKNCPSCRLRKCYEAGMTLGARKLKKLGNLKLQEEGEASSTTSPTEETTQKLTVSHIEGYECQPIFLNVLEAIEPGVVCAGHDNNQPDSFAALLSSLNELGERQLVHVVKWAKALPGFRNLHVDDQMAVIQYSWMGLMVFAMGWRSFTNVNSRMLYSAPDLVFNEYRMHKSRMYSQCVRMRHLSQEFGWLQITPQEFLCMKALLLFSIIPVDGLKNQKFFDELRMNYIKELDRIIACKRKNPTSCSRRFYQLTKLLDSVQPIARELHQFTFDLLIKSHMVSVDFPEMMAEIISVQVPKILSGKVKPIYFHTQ

hAR LBD M787V = hAR LBD M787V (Homo sapiens, UniProt P10275, M788V)
hAR LBD M787V, sequence (P10275 whole entry M788V, the tested form may be a part): as the sequence (P10275 whole entry F765S, the tested form may be a part) above, with S765F, M788V counted along it

[1] = target: AR receptor of LNCaP (T877A) (Homo sapiens, UniProt P10275, T878A); conditions: single point mutation T877A
AR receptor of LNCaP (T877A), sequence (P10275 whole entry T878A): as the sequence (P10275 whole entry F765S, the tested form may be a part) above, with S765F, T878A counted along it

hAR M7421 = hAR M7421 (Homo sapiens, UniProt P10275, M743I)
hAR M7421, sequence (P10275 whole entry M743I): as the sequence (P10275 whole entry F765S, the tested form may be a part) above, with M743I, S765F counted along it

wild-type hAR, sequence (P10275 whole entry): as the sequence (P10275 whole entry F765S, the tested form may be a part) above, with S765F counted along it
hAR mutant L707R, sequence (P10275 whole entry L708R): as the sequence (P10275 whole entry F765S, the tested form may be a part) above, with L708R, S765F counted along it
hAR M742V, sequence (P10275 whole entry M743V): as the sequence (P10275 whole entry F765S, the tested form may be a part) above, with M743V, S765F counted along it

Structure (SMILES): C[C@]1(O)CC[C@H]2[C@@H]3CCC4=CC(=O)CCC4=C3C=C[C@@]21C [R1881, metribolone]
- effect of mutation on binding affinity (hAR M742V): dramatically reduce
- binding affinity (hAR mutant L707R): undetectable
- relative binding affinity (RBA) (wild-type hAR): 290
- relative binding affinity (RBA) (wild-type hPR): 190
- ligand dissociation (hAR mutation F764S): rapid ligand dissociation
- binding (hAR LBD M787V): undetectable or strongly reduced
- R1881 binding versus wild type [1]: identical
- effect of mutation on binding affinity (hAR M7421): dramatically reduce
